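1) Cells in 96-well plates. 2) Compound, 48 h, 5 concentrations. 3) Linear interpolation between surrounding doses. 4) Unreached endpoint = highest concentration. At the GI50, growth is halved. At the TGI there is no net growth.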
Tests used:
Experiment in all cases: DTP human tumour cell line panel, 48 h
786-0 renal = tested on: 786-0 renal
A549 NSCLC = tested on: A549 NSCLC
ACHN renal = tested on: ACHN renal
BT-549 breast = tested on: BT-549 breast
CAKI-1 renal = tested on: CAKI-1 renal
CCRF-CEM leukemia = tested on: CCRF-CEM leukemia
COLO 205 colon = tested on: COLO 205 colon
DU-145 prostate = tested on: DU-145 prostate
EKVX NSCLC = tested on: EKVX NSCLC
HCC-2998 colon = tested on: HCC-2998 colon
HCT-116 colon = tested on: HCT-116 colon
HCT-15 colon = tested on: HCT-15 colon
HL-60(TB) leukemia = tested on: HL-60(TB) leukemia
HOP-62 NSCLC = tested on: HOP-62 NSCLC
HOP-92 NSCLC = tested on: HOP-92 NSCLC
HT29 colon = tested on: HT29 colon
IGROV1 ovarian = tested on: IGROV1 ovarian
K-562 leukemia = tested on: K-562 leukemia
KM12 colon = tested on: KM12 colon
LOX IMVI melanoma = tested on: LOX IMVI melanoma
M14 melanoma = tested on: M14 melanoma
MALME-3M melanoma = tested on: MALME-3M melanoma
MCF7 breast = tested on: MCF7 breast
MDA-MB-231 breast = tested on: MDA-MB-231 breast
MDA-MB-435 = tested on: MDA-MB-435
MOLT-4 leukemia = tested on: MOLT-4 leukemia
NCI-H226 lung = tested on: NCI-H226 lung
NCI-H23 lung = tested on: NCI-H23 lung
NCI-H460 lung = tested on: NCI-H460 lung
NCI-H522 lung = tested on: NCI-H522 lung
NCI/ADR-RES ovarian = tested on: NCI/ADR-RES ovarian
OVCAR-4 ovarian = tested on: OVCAR-4 ovarian
OVCAR-5 ovarian = tested on: OVCAR-5 ovarian
OVCAR-8 ovarian = tested on: OVCAR-8 ovarian
PC-3 prostate = tested on: PC-3 prostate
RPMI-8226 leukemia = tested on: RPMI-8226 leukemia
SF-268 CNS = tested on: SF-268 CNS
SF-295 CNS = tested on: SF-295 CNS
SF-539 CNS = tested on: SF-539 CNS
SK-MEL-2 melanoma = tested on: SK-MEL-2 melanoma
SK-MEL-5 melanoma = tested on: SK-MEL-5 melanoma
SN12C renal = tested on: SN12C renal
SNB-19 CNS = tested on: SNB-19 CNS
SNB-75 CNS = tested on: SNB-75 CNS
SR leukemia = tested on: SR leukemia
SW-620 colon = tested on: SW-620 colon
TK-10 renal = tested on: TK-10 renal
U251 CNS = tested on: U251 CNS
UACC-257 melanoma = tested on: UACC-257 melanoma
A498 renal = tested on: A498 renal
OVCAR-3 ovarian = tested on: OVCAR-3 ovarian
SK-MEL-28 melanoma = tested on: SK-MEL-28 melanoma
SK-OV-3 ovarian = tested on: SK-OV-3 ovarian
UACC-62 melanoma = tested on: UACC-62 melanoma
UO-31 renal = tested on: UO-31 renal

O=c1[nH]nc(Nc2ccc(Cl)cc2)c2nnn(-c3ccc([N+](=O)[O-])cc3)c12
TGI (786-0 renal): 35.5 µM | TGI (A549 NSCLC): 29.1 µM | TGI (ACHN renal): > 100 µM | TGI (BT-549 breast): > 100 µM | TGI (CAKI-1 renal): > 100 µM | TGI (CCRF-CEM leukemia): 61.7 µM | TGI (COLO 205 colon): 49.7 µM | TGI (DU-145 prostate): 48.6 µM | TGI (EKVX NSCLC): > 100 µM | TGI (HCC-2998 colon): 64.7 µM | TGI (HCT-116 colon): 42.4 µM | TGI (HCT-15 colon): > 100 µM | TGI (HL-60(TB) leukemia): > 100 µM | TGI (HOP-62 NSCLC): > 100 µM | TGI (HOP-92 NSCLC): 46.9 µM | TGI (HT29 colon): > 100 µM | TGI (IGROV1 ovarian): > 100 µM | TGI (K-562 leukemia): 29.9 µM | TGI (KM12 colon): > 100 µM | TGI (LOX IMVI melanoma): 53.1 µM | TGI (M14 melanoma): > 100 µM | TGI (MALME-3M melanoma): > 100 µM | TGI (MCF7 breast): 47.4 µM | TGI (MDA-MB-231 breast): > 100 µM | TGI (MDA-MB-435): > 100 µM | TGI (MOLT-4 leukemia): 45.2 µM | TGI (NCI-H226 lung): > 100 µM | TGI (NCI-H23 lung): 24.9 µM | TGI (NCI-H460 lung): > 100 µM | TGI (NCI-H522 lung): 18 µM | TGI (NCI/ADR-RES ovarian): > 100 µM | TGI (OVCAR-4 ovarian): > 100 µM | TGI (OVCAR-5 ovarian): > 100 µM | TGI (OVCAR-8 ovarian): 48 µM | TGI (PC-3 prostate): 68.8 µM | TGI (RPMI-8226 leukemia): > 100 µM | TGI (SF-268 CNS): > 100 µM | TGI (SF-295 CNS): > 100 µM | TGI (SF-539 CNS): 39.6 µM | TGI (SK-MEL-2 melanoma): 82.2 µM | TGI (SK-MEL-5 melanoma): 22.7 µM | TGI (SN12C renal): > 100 µM | TGI (SNB-19 CNS): > 100 µM | TGI (SNB-75 CNS): > 100 µM | TGI (SR leukemia): > 100 µM | TGI (SW-620 colon): > 100 µM | TGI (TK-10 renal): 46.7 µM | TGI (U251 CNS): 46 µM | TGI (UACC-257 melanoma): > 100 µM

O[C@@H]1CCCCN1Cc1cc2cc3c(cc2c2cc(OCc4ccccc4)ccc12)OCO3
GI50 (A498 renal): 1.41 µM | TGI (A498 renal): 2.75 µM | GI50 (A549 NSCLC): 1.62 µM | TGI (A549 NSCLC): 3.31 µM | GI50 (ACHN renal): 1.47 µM | TGI (ACHN renal): 2.79 µM | GI50 (BT-549 breast): 1.73 µM | TGI (BT-549 breast): 3.31 µM | GI50 (CAKI-1 renal): 1.57 µM | TGI (CAKI-1 renal): 2.91 µM | GI50 (CCRF-CEM leukemia): 0.176 µM | TGI (CCRF-CEM leukemia): 4.61 µM | GI50 (COLO 205 colon): 1.28 µM | TGI (COLO 205 colon): 2.66 µM | GI50 (DU-145 prostate): 1.63 µM | TGI (DU-145 prostate): 3.02 µM | GI50 (EKVX NSCLC): 2.01 µM | TGI (EKVX NSCLC): 3.97 µM | GI50 (HCC-2998 colon): 0.509 µM | TGI (HCC-2998 colon): 1.83 µM | GI50 (HCT-116 colon): 1.04 µM | TGI (HCT-116 colon): 2.21 µM | GI50 (HCT-15 colon): 1.81 µM | TGI (HCT-15 colon): 4.37 µM | GI50 (HL-60(TB) leukemia): 1.5 µM | TGI (HL-60(TB) leukemia): 3.57 µM | GI50 (HOP-62 NSCLC): 1.55 µM | TGI (HOP-62 NSCLC): 2.89 µM | GI50 (HOP-92 NSCLC): 1.35 µM | TGI (HOP-92 NSCLC): 2.93 µM | GI50 (HT29 colon): 1.03 µM | TGI (HT29 colon): 2.45 µM | GI50 (IGROV1 ovarian): 1.68 µM | TGI (IGROV1 ovarian): 3.11 µM | GI50 (K-562 leukemia): 1.45 µM | TGI (K-562 leukemia): 4.14 µM | GI50 (KM12 colon): 1.59 µM | TGI (KM12 colon): 3.16 µM | GI50 (M14 melanoma): 1.59 µM | TGI (M14 melanoma): 2.96 µM | GI50 (MALME-3M melanoma): 1.66 µM | TGI (MALME-3M melanoma): 3.37 µM | GI50 (MCF7 breast): 1.33 µM | TGI (MCF7 breast): 2.73 µM | GI50 (MDA-MB-231 breast): 1.75 µM | TGI (MDA-MB-231 breast): 3.33 µM | GI50 (MDA-MB-435): 1.63 µM | TGI (MDA-MB-435): 3.06 µM | GI50 (MOLT-4 leukemia): 0.666 µM | TGI (MOLT-4 leukemia): 8.05 µM | GI50 (NCI-H460 lung): 1.37 µM | TGI (NCI-H460 lung): 2.76 µM | GI50 (NCI-H522 lung): 1.49 µM | TGI (NCI-H522 lung): 2.91 µM | GI50 (NCI/ADR-RES ovarian): 1.5 µM | TGI (NCI/ADR-RES ovarian): 3.47 µM | GI50 (OVCAR-3 ovarian): 1.5 µM | TGI (OVCAR-3 ovarian): 2.95 µM | GI50 (OVCAR-4 ovarian): 1.45 µM | TGI (OVCAR-4 ovarian): 2.9 µM | GI50 (OVCAR-5 ovarian): 1.73 µM | TGI (OVCAR-5 ovarian): 3.93 µM | GI50 (OVCAR-8 ovarian): 1.19 µM | TGI (OVCAR-8 ovarian): 3.03 µM | GI50 (RPMI-8226 leukemia): 1.41 µM | TGI (RPMI-8226 leukemia): 3.38 µM | GI50 (SF-268 CNS): 1.26 µM | TGI (SF-268 CNS): 2.61 µM | GI50 (SF-295 CNS): 1.59 µM | TGI (SF-295 CNS): 3.03 µM | GI50 (SF-539 CNS): 1.55 µM | TGI (SF-539 CNS): 2.96 µM | GI50 (SK-MEL-2 melanoma): 1.7 µM | TGI (SK-MEL-2 melanoma): 3.16 µM | GI50 (SK-MEL-28 melanoma): 1.55 µM | TGI (SK-MEL-28 melanoma): 2.94 µM | GI50 (SK-MEL-5 melanoma): 1.62 µM | TGI (SK-MEL-5 melanoma): 3.09 µM | GI50 (SK-OV-3 ovarian): 1.64 µM | TGI (SK-OV-3 ovarian): 3.39 µM | GI50 (SN12C renal): 1.42 µM | TGI (SN12C renal): 2.77 µM | GI50 (SNB-19 CNS): 1.63 µM | TGI (SNB-19 CNS): 3.59 µM | GI50 (SNB-75 CNS): 1.66 µM | TGI (SNB-75 CNS): 3.08 µM | GI50 (SW-620 colon): 1.17 µM | TGI (SW-620 colon): 2.7 µM | GI50 (TK-10 renal): 2.08 µM | TGI (TK-10 renal): 4.05 µM | GI50 (U251 CNS): 1.52 µM | TGI (U251 CNS): 2.95 µM | GI50 (UACC-257 melanoma): 1.86 µM | TGI (UACC-257 melanoma): 3.66 µM | GI50 (UACC-62 melanoma): 1.89 µM | TGI (UACC-62 melanoma): 3.46 µM | GI50 (UO-31 renal): 1.53 µM | TGI (UO-31 renal): 2.89 µM

Reference: PubChem BioAssay (NCI)
